Test results as given in patent US20260215418A1, “HYDROCARBON ALCOHOLS AND THEIR DERIVATIVES AS SYNERGISTS IN PESTICIDE ACTIVITY” (priority 2022, published 2026).
“Also recorded” adds a separate entry of the source.

Assays:
Type in all cases: in vivo
Blattella germanica = assay: Contact test on non-porous tile, Blattella germanica; conditions: Blattella germanica; synergist applied with Imidacloprid
Procedure: 1 ml of Composition 36 was distributed on the tile. […] 1 ml of Composition 37 was distributed on a tile.

Musca domestica L. = assay: Contact test on non-porous tile, Musca domestica; conditions: for synergizing effect on Azamethiphos / synergizing effect on Cypermethrin / synergizing effect on Spinosad: Musca domestica L.; for synergizing effect on Azamethiphos: synergist applied with Azamethiphos; for synergizing effect on Cypermethrin: synergist applied with Cypermethrin; for synergizing effect on Spinosad: synergist applied with Spinosad; for mortality at 680 µg/mL: 0.68 mg/ml
Procedure: 1 ml of Composition 1 was applied to the tile. […] 1 ml of Composition 8a was distributed on the tile. […] 1 ml of Composition 8a was distributed on a tile. […] At the end of the 30 minutes, the flies were transferred to an untreated area.
1 ml of Composition 3 was applied to the tile. […] 1 ml of Composition 8c was distributed on the tile. […] 1 ml of Composition 8c was distributed on a tile. […] At the end of the 30 minutes, the flies were transferred to an untreated area.
1 ml of Composition 9a was distributed on the tile. […] 1 ml of Composition 9a was distributed on a tile. […] At the end of the 30 minutes, the flies were transferred to an untreated area. […] 1 ml of Composition 10a was distributed on the tile. […] 1 ml of Composition 10a was distributed on a tile. […] At the end of the 30 minutes, the flies were transferred to an untreated area. […] 1 ml of Composition 8c was distributed on the tile. […] 1 ml of Composition 8c was distributed on a tile. […] At the end of the 30 minutes, the flies were transferred to an untreated area.
1 ml of Composition 5a, was distributed on the tile. […] 1 ml of Composition 6a was distributed on the tile. […] 1 ml of Composition 7a was distributed on the tile.
1 ml of Composition 3 was distributed on the tile. […] 1 ml of Composition 9a was distributed on the tile. […] 1 ml of Composition 11a was distributed on a tile. […] 1 ml of Composition 12a was distributed on a tile.
1 ml of Composition 3 was distributed on the tile. […] 1 ml of Composition 17a was distributed on a tile. […] 1 ml of Composition 18a was distributed on a tile. […] Each experiment (A-C) was conducted in duplicate.
1 ml of Composition 23a was distributed on the tile. […] 1 ml of Composition 20a was distributed on a tile. […] Each experiment (A-B) was conducted in duplicate.
1 ml of Composition 3 was distributed on the tile. […] 1 ml of Composition 25a was distributed on a tile. […] Each experiment (A-B) was conducted in duplicate.
1 ml of Composition 23a was distributed on the tile. […] 1 ml of Composition 27a was distributed on a tile. […] Each experiment (A-B) was conducted in duplicate.
1 ml of Composition 26a was distributed on a tile. […] 1 ml of Composition 26b was distributed on a tile. […] 1 ml of Composition 26c was distributed on a tile.
1 ml of Composition 22a was distributed on a tile. […] 1 ml of Composition 22b was distributed on a tile. […] 1 ml of Composition 22c was distributed on a tile.
1 ml of Composition 23a was distributed on the tile. […] 1 ml of Composition 44a was distributed on a tile.
1 ml of Composition 33 was distributed on a tile. […] 1 ml of Composition 33 was distributed on a tile. […] At the end of the 30 minutes, the flies were transferred to an untreated area.
1 ml of Composition 1 was distributed on the tile. […] 1 ml of Composition 34 was distributed on a tile. […] 1 ml of Composition 34 was distributed on a tile. […] At the end of the 30 minutes, the flies were transferred to an untreated area.
1 ml of Composition 3 was distributed on the tile. […] 1 ml of Composition 31a was distributed on a tile. […] 1 ml of Composition 31b was distributed on a tile. […] 1 ml of Composition 31b was distributed on a tile. […] At the end of the 30 minutes, the flies were transferred to an untreated area. […] 1 ml of Composition 38a was distributed on a tile. […] 1 ml of Composition 38a was distributed on a tile. […] At the end of the 30 minutes, the flies were transferred to an untreated area.
G) According to the invention. 1 ml of Composition 40a was distributed on a tile. […] Subsequently, after waiting for the solvent to evaporate, 10 flies were placed on top of the treated til

Blatta lateralis = assay: Contact test on non-porous tile, Blatta lateralis; conditions: Blatta lateralis; synergist applied with Imidacloprid
Procedure: 1 ml of Composition 24 was distributed on the tile. […] 1 ml of Composition 20c was distributed on a tile. […] 1 ml of Composition 20d was distributed on a tile.
1 ml of Composition 24 was distributed on the tile. […] 1 ml of Composition 28 was distributed on a tile. […] Each experiment (A-B) was conducted in duplicate.
1 ml of Composition 24 was distributed on the tile. […] 1 ml of Composition 21 was distributed on a tile.
1 ml of Composition 4b was distributed on the tile. […] 1 ml of Composition 31c was distributed on a tile. […] 1 ml of Composition 31d was distributed on a tile. […] 1 ml of Composition 31d was distributed on a tile.
1 ml of Composition 24 was distributed on the tile. […] 1 ml of Composition 35 was distributed on a tile. […] 1 ml of Composition 40b was distributed on a tile. […] 1 ml of Composition 42 was distributed on a tile.

[1] = Musca domestica, single substance alone, 48 h, read-out: Mortality %/time (h)

Compound | synergizing effect on Imidacloprid (Blattella germanica) | synergizing effect on Azamethiphos (Musca domestica L.) | synergizing effect on Cypermethrin (Musca domestica L.) | Mortality %/time (h) (Musca domestica L.; single substance alone, 0.15 mg/ml, 48 h) | Mortality %/time (h) (Musca domestica L.; single substance alone, 0.51 mg/ml, 48 h) | Mortality %/time (h) (Musca domestica L.; single substance alone, 0.88 mg/ml, 48 h) | Mortality %/time (h) (Musca domestica L.; single substance alone, 28.53 mg/ml, 48 h) | synergizing effect on Imidacloprid (Blatta lateralis) | synergizing effect on Spinosad (Musca domestica L.) | mortality at 680 µg/mL (Musca domestica L.; [1]) | mortality at 150 µg/mL (Musca domestica L.; Musca domestica, single substance alone, 0.15 mg/ml, 48 h, read-out: Mortality %/time (h)) | mortality at 510 µg/mL (Musca domestica L.; Musca domestica, single substance alone, 0.51 mg/ml, 48 h, read-out: Mortality %/time (h)) | mortality at 1020 µg/mL (Musca domestica L.; Musca domestica, single substance alone, 1.02 mg/ml, 48 h, read-out: Mortality %/time (h)) | mortality at 33000 µg/mL (Musca domestica L.; Musca domestica, single substance alone, 33.00 mg/ml, 48 h, read-out: Mortality %/time (h))
Oleic alcohol [Oleic alcohol 95%] | fine synergizing effect | high synergizing effect | synergistic effect, comparable to the activity shown by PBO; also recorded: good synergizing effect | 1/48 ^ % | 5/48 ^ % | 8/48 ^ % | 18/48 ^ % | same synergizing effect of PBO | – | – | – | – | – | –
CCCCCCCCOC(=O)OCCCCCCCC [dioctyl carbonate] | – | excellent synergizing effect | high synergizing effect | – | – | – | – | good synergizing effect | fine synergizing effect | 33% | – | – | – | –
CCCCCCCC/C=C\CCCCCCCCOC(C)=O [Oleyl acetate] | – | high synergizing effect | high synergizing effect | – | – | – | – | excellent synergizing effect | fine synergizing effect | 60% | 0% | 0% | 0% | 18%
